Test results reported in PMC5218480 (PLoS ONE, 2017).

Test system: MV-4-11 cells
Test: Gene expression microarray analysis (Affymetrix PrimeView) and GSEA
Type: cell-based, human
Design: RFU PODN (11730768_x_at) / Fold change /veh PODN (11730768_x_at) / RFU LINC00158 (11744669_a_at) / Fold change /veh LINC00158 (11744669_a_at) / RFU DUSP10 (11751237_a_at) / Fold change /veh DUSP10 (11751237_a_at) / RFU ID3 (11757404_x_at) / Fold change /veh ID3 (11757404_x_at) / RFU PLEKHG5 (11737974_s_at) / Fold change /veh PLEKHG5 (11737974_s_at) / RFU LRRC4B (11730491_at) / Fold change /veh LRRC4B (11730491_at) / RFU GIMAP4 (11747438_a_at) / Fold change /veh GIMAP4 (11747438_a_at) / RFU KRT8 (11758183_x_at) / Fold change /veh KRT8 (11758183_x_at) / RFU CNN1 (11734310_a_at) / Fold change /veh CNN1 (11734310_a_at) / RFU VPS37D (11726825_at) / Fold change /veh VPS37D (11726825_at) / RFU C10orf10 (11716522_x_at) / Fold change /veh C10orf10 (11716522_x_at) / RFU KIR2DL2 /// KIR2DL4 /// KIR2DL5A /// KIR2DL5B /// KIR2DS1 /// KIR2DS2 /// KIR2DS3 /// KIR2DS4 /// KIR3DL3 /// KIR3DL3 /// KIR3DS1 (11738374_at) / Fold change /veh KIR2DL2 /// KIR2DL4 /// KIR2DL5A /// KIR2DL5B /// KIR2DS1 /// KIR2DS2 /// KIR2DS3 /// KIR2DS4 /// KIR3DL3 /// KIR3DL3 /// KIR3DS1 (11738374_at) / RFU C1QL1 (11718748_at) / Fold change /veh C1QL1 (11718748_at) / RFU TMPRSS4 (11747572_a_at) / Fold change /veh TMPRSS4 (11747572_a_at) / RFU HAMP (11756126_x_at) / Fold change /veh HAMP (11756126_x_at) / RFU RNFT2 (11725882_a_at) / Fold change /veh RNFT2 (11725882_a_at) / RFU NR4A2 (11747474_a_at) / Fold change /veh NR4A2 (11747474_a_at) / RFU ABCC12 (11746883_a_at) / Fold change /veh ABCC12 (11746883_a_at) / RFU TMEM136 (11760407_x_at) / Fold change /veh TMEM136 (11760407_x_at) / RFU CLDN22 /// WWC2 (11732394_at) / Fold change /veh CLDN22 /// WWC2 (11732394_at) / RFU HLA-DPB1 (11760878_x_at) / Fold change /veh HLA-DPB1 (11760878_x_at) / RFU SPINT1 (11716480_a_at) / Fold change /veh SPINT1 (11716480_a_at) / RFU GAP43 (11754022_s_at) / Fold change /veh GAP43 (11754022_s_at) / RFU A4GNT (11735810_at) / Fold change /veh A4GNT (11735810_at) / RFU PRB3 (11715151_x_at) / Fold change /veh PRB3 (11715151_x_at) / RFU TUBB4B (11761932_at) / Fold change /veh TUBB4B (11761932_at) / RFU CAPN14 (11732068_a_at) / Fold change /veh CAPN14 (11732068_a_at) / RFU TMCC2 (11721928_a_at) / Fold change /veh TMCC2 (11721928_a_at) / RFU IRGQ (11745062_a_at) / Fold change /veh IRGQ (11745062_a_at) / RFU FAM174B (11720279_a_at) / Fold change /veh FAM174B (11720279_a_at) / RFU TMPRSS4 (11748680_a_at) / Fold change /veh TMPRSS4 (11748680_a_at) / RFU FAM212B (11763350_a_at) / Fold change /veh FAM212B (11763350_a_at) / RFU PLEKHG5 (11743358_a_at) / Fold change /veh PLEKHG5 (11743358_a_at) / RFU ZSCAN30 (11745921_a_at) / Fold change /veh ZSCAN30 (11745921_a_at) / RFU CMKLR1 (11741424_a_at) / Fold change /veh CMKLR1 (11741424_a_at) / RFU LOC101060620 /// MAPK8IP1 (11723275_at) / Fold change /veh LOC101060620 /// MAPK8IP1 (11723275_at) / RFU SPTSSB (11747773_x_at) / Fold change /veh SPTSSB (11747773_x_at) / RFU PRSS12 (11739890_at) / Fold change /veh PRSS12 (11739890_at) / RFU BIN1 (11741810_x_at) / Fold change /veh BIN1 (11741810_x_at) / RFU WNT11 (11732464_a_at) / Fold change /veh WNT11 (11732464_a_at) / RFU C10orf10 (11716521_a_at) / Fold change /veh C10orf10 (11716521_a_at) / RFU C5orf56 (11738089_at) / Fold change /veh C5orf56 (11738089_at) / RFU CYB561 (11721691_x_at) / Fold change /veh CYB561 (11721691_x_at) / RFU ANKRD19P (11752326_a_at) / Fold change /veh ANKRD19P (11752326_a_at) / RFU OR2T12 /// OR2T33 /// OR2T8 (11738714_s_at) / Fold change /veh OR2T12 /// OR2T33 /// OR2T8 (11738714_s_at) / RFU VCAN (11748164_a_at) / Fold change /veh VCAN (11748164_a_at) / RFU JSRP1 (11732532_at) / Fold change /veh JSRP1 (11732532_at) / RFU KRTAP10-11 (11738290_x_at) / Fold change /veh KRTAP10-11 (11738290_x_at) / RFU MYO3A (11730013_a_at) / Fold change /veh MYO3A (11730013_a_at) / RFU EBF3 (11725865_a_at) / Fold change /veh EBF3 (11725865_a_at) / RFU CAMK2N1 (11719241_x_at) / Fold change /veh CAMK2N1 (11719241_x_at) / RFU C5orf56 (11738088_a_at) / Fold change /veh C5orf56 (11738088_a_at) / RFU OLFML3 (11715873_a_at) / Fold change /veh OLFML3 (11715873_a_at) / RFU LOC100653217 /// NTM (11731650_a_at) / Fold change /veh LOC100653217 /// NTM (11731650_a_at) / RFU MAPK11 (11762145_a_at) / Fold change /veh MAPK11 (11762145_a_at) / RFU FIZ1 (11724087_x_at) / Fold change /veh FIZ1 (11724087_x_at) / RFU OASL (11726364_x_at) / Fold change /veh OASL (11726364_x_at) / RFU SOX15 (11748057_x_at) / Fold change /veh SOX15 (11748057_x_at) / RFU CD79A (11719716_a_at) / Fold change /veh CD79A (11719716_a_at) / RFU HIST1H1D (11736915_at) / Fold change /veh HIST1H1D (11736915_at) / RFU CASKIN2 (11723855_a_at) / Fold change /veh CASKIN2 (11723855_a_at) / RFU LOC730098 (11760151_x_at) / Fold change /veh LOC730098 (11760151_x_at) / RFU OR4N2 (11742367_at) / Fold change /veh OR4N2 (11742367_at) / RFU PRRT2 (11749266_a_at) / Fold change /veh PRRT2 (11749266_a_at) / RFU SNX32 (11753110_a_at) / Fold change /veh SNX32 (11753110_a_at) / RFU CDHR5 (11726645_a_at) / Fold change /veh CDHR5 (11726645_a_at) / RFU RCAN1 (11760418_a_at) / Fold change /veh RCAN1 (11760418_a_at) / RFU FAM167A (11723789_a_at) / Fold change /veh FAM167A (11723789_a_at) / RFU FAM26E (11764081_at) / Fold change /veh FAM26E (11764081_at) / RFU ISYNA1 (11749810_s_at) / Fold change /veh ISYNA1 (11749810_s_at) / RFU ACY1 (11761880_at) / Fold change /veh ACY1 (11761880_at) / RFU 11764098_at / Fold change /veh 11764098_at / RFU SAMD14 (11745864_x_at) / Fold change /veh SAMD14 (11745864_x_at) / RFU NPB (11741838_a_at) / Fold change /veh NPB (11741838_a_at) / RFU TMPRSS6 (11731388_a_at) / Fold change /veh TMPRSS6 (11731388_a_at) / RFU KRTAP10-2 (11738614_at) / Fold change /veh KRTAP10-2 (11738614_at) / RFU ARHGAP8 /// PRR5-ARHGAP8 (11727945_x_at) / Fold change /veh ARHGAP8 /// PRR5-ARHGAP8 (11727945_x_at) / RFU KRTAP5-7 /// NADSYN1 (11734609_at) / Fold change /veh KRTAP5-7 /// NADSYN1 (11734609_at) / RFU RASL12 (11751679_a_at) / Fold change /veh RASL12 (11751679_a_at) / RFU CDKN2B (11736163_a_at) / Fold change /veh CDKN2B (11736163_a_at) / RFU PRF1 (11729649_at) / Fold change /veh PRF1 (11729649_at) / RFU, ZNF638 /// ZNF638-IT1 / Fold change vs veh, ZNF638 /// ZNF638-IT1 / RFU, PANK3 / Fold change vs veh, PANK3 / RFU, SH3YL1 / Fold change vs veh, SH3YL1 / RFU, ZEB2 / Fold change vs veh, ZEB2 / RFU, NRIP1 / Fold change vs veh, NRIP1 / RFU, PTTG1IP / Fold change vs veh, PTTG1IP / RFU, CAPN2 / Fold change vs veh, CAPN2 / RFU, MED14 / Fold change vs veh, MED14 / RFU, SNORA58 / Fold change vs veh, SNORA58 / RFU, C1orf63 / Fold change vs veh, C1orf63 / RFU, LRRFIP1 / Fold change vs veh, LRRFIP1 / RFU, NDUFAF7 / Fold change vs veh, NDUFAF7 / RFU, SLC12A2 / Fold change vs veh, SLC12A2 / RFU, IBTK / Fold change vs veh, IBTK / RFU, ESF1 / Fold change vs veh, ESF1 / Fold change vs veh, TMEM50B / RFU, TAOK1 / Fold change vs veh, TAOK1 / RFU, ACBD3 / Fold change vs veh, ACBD3 / RFU, TMA16 / Fold change vs veh, TMA16 / RFU, RWDD3 / Fold change vs veh, RWDD3 / RFU, BCAT1 / Fold change vs veh, BCAT1 / RFU, EDEM3 / Fold change vs veh, EDEM3 / RFU, TMEM33 / Fold change vs veh, TMEM33 / RFU, WDR75 / Fold change vs veh, WDR75 / RFU, AHCTF1 / Fold change vs veh, AHCTF1 / RFU, TFRC / Fold change vs veh, TFRC / RFU, ZDHHC17 / Fold change vs veh, ZDHHC17 / RFU, NOM1 / Fold change vs veh, NOM1 / RFU, ARL8B / Fold change vs veh, ARL8B / RFU, ZBTB11 / Fold change vs veh, ZBTB11 / RFU, TAMM41 / Fold change vs veh, TAMM41 / RFU, KIAA1704 /// LOC100996395 / Fold change vs veh, KIAA1704 /// LOC100996395 / RFU, ING1 / Fold change vs veh, ING1 / RFU, TRMT61B / Fold change vs veh, TRMT61B / RFU, FUBP3 / Fold change vs veh, FUBP3 / RFU, TP53 / Fold change vs veh, TP53 / RFU, TNKS2 / Fold change vs veh, TNKS2 / RFU, ZFP14 / Fold change vs veh, ZFP14 / RFU, ACTR2 / Fold change vs veh, ACTR2 / RFU, PPP3R1 / Fold change vs veh, PPP3R1 / RFU, PIK3R1 / Fold change vs veh, PIK3R1 / RFU, HNRNPA1 / Fold change vs veh, HNRNPA1 / RFU, RNF170 / Fold change vs veh, RNF170 / RFU, ZNF28 / Fold change vs veh, ZNF28 / RFU, RNGTT / Fold change vs veh, RNGTT / RFU, OGT / Fold change vs veh, OGT / RFU, BRD1 / Fold change vs veh, BRD1 / RFU, MARS / Fold change vs veh, MARS / RFU, ZNF655 / Fold change vs veh, ZNF655 / RFU, FAHD1 / Fold change vs veh, FAHD1 / RFU, BDP1 / Fold change vs veh, BDP1 / RFU, LRRCC1 / Fold change vs veh, LRRCC1 / RFU, ARID1A / Fold change vs veh, ARID1A / RFU, ZNF146 / Fold change vs veh, ZNF146 / RFU, ZNF330 / Fold change vs veh, ZNF330 / RFU, GPN3 / Fold change vs veh, GPN3 / RFU, C9orf123 / Fold change vs veh, C9orf123 / RFU, N4BP2L2 / Fold change vs veh, N4BP2L2 / RFU, ARFIP1 / Fold change vs veh, ARFIP1 / RFU, FAM179B / Fold change vs veh, FAM179B / RFU, BCL10 / Fold change vs veh, BCL10 / RFU, UHRF1BP1L / Fold change vs veh, UHRF1BP1L / RFU, BET1 / Fold change vs veh, BET1 / RFU, CNOT2 / Fold change vs veh, CNOT2 / RFU, ZNF268 / Fold change vs veh, ZNF268 / Fold change vs veh, ZNF507 / RFU, DGCR2 / Fold change vs veh, DGCR2 / RFU, WDSUB1 / Fold change vs veh, WDSUB1 / Fold change vs veh, HSP90B1 /// MIR3652 / RFU, ADSS / Fold change vs veh, ADSS / RFU, GK / Fold change vs veh, GK / RFU, ZNF148 / Fold change vs veh, ZNF148 / RFU, TAF9 / Fold change vs veh, TAF9 / RFU, SLC1A5 / Fold change vs veh, SLC1A5 / RFU, SLMO2 / Fold change vs veh, SLMO2 / RFU, ABCC4 / Fold change vs veh, ABCC4 / RFU, LOC101060439 /// RAP1B / Fold change vs veh, LOC101060439 /// RAP1B / RFU, RFX7 / Fold change vs veh, RFX7 / RFU, GTPBP10 / Fold change vs veh, GTPBP10 / RFU, CNEP1R1 / Fold change vs veh, CNEP1R1 / RFU, BIVM-ERCC5 /// ERCC5 / Fold change vs veh, BIVM-ERCC5 /// ERCC5 / RFU, ILF3 / Fold change vs veh, ILF3 / RFU 11762660_at / Fold change /veh 11762660_at / RFU VCAN (11757783_s_at) / Fold change /veh VCAN (11757783_s_at) / RFU DDX43 (11728927_at) / Fold change /veh DDX43 (11728927_at) / RFU KRT8 (11758188_x_at) / Fold change /veh KRT8 (11758188_x_at) / RFU NKD1 (11759106_at) / Fold change /veh NKD1 (11759106_at) / RFU SRD5A1 (11742802_a_at) / Fold change /veh SRD5A1 (11742802_a_at) / RFU TPSAB1 /// TPSB2 (11721975_s_at) / Fold change /veh TPSAB1 /// TPSB2 (11721975_s_at) / RFU GSTM3 (11746129_a_at) / Fold change /veh GSTM3 (11746129_a_at) / RFU IL23R (11737362_x_at) / Fold change /veh IL23R (11737362_x_at) / RFU TMEM51 (11727254_a_at) / Fold change /veh TMEM51 (11727254_a_at) / RFU PIWIL2 (11732686_x_at) / Fold change /veh PIWIL2 (11732686_x_at) / RFU ORM1 (11744905_x_at) / Fold change /veh ORM1 (11744905_x_at) / RFU CCDC152 (11743942_at) / Fold change /veh CCDC152 (11743942_at) / RFU ECM1 (11717891_a_at) / Fold change /veh ECM1 (11717891_a_at) / RFU IL23R (11748794_a_at) / Fold change /veh IL23R (11748794_a_at) / RFU TNFAIP8L3 (11732012_x_at) / Fold change /veh TNFAIP8L3 (11732012_x_at) / RFU MBOAT4 (11741988_at) / Fold change /veh MBOAT4 (11741988_at) / RFU 11764193_at / Fold change /veh 11764193_at / RFU TMEM53 (11763286_at) / Fold change /veh TMEM53 (11763286_at) / RFU MAGEB2 (11727129_at) / Fold change /veh MAGEB2 (11727129_at) / RFU TMEM200A (11744735_a_at) / Fold change /veh TMEM200A (11744735_a_at) / RFU CCDC152 (11751479_a_at) / Fold change /veh CCDC152 (11751479_a_at) / RFU FAM211A (11726209_a_at) / Fold change /veh FAM211A (11726209_a_at) / RFU RGS16 (11746705_a_at) / Fold change /veh RGS16 (11746705_a_at) / RFU VCAN (11755009_s_at) / Fold change /veh VCAN (11755009_s_at) / RFU RHOB (11743442_s_at) / Fold change /veh RHOB (11743442_s_at) / RFU RGS16 (11720943_a_at) / Fold change /veh RGS16 (11720943_a_at) / RFU RGS16 (11720944_at) / Fold change /veh RGS16 (11720944_at) / RFU, VPS4B / Fold change vs veh, VPS4B / RFU, CREB1 / Fold change vs veh, CREB1 / RFU, DNAJC13 / Fold change vs veh, DNAJC13 / RFU, GNAQ / Fold change vs veh, GNAQ / RFU, CDK5R1 / Fold change vs veh, CDK5R1 / RFU, ZRANB3 / Fold change vs veh, ZRANB3 / RFU, CUL4A / Fold change vs veh, CUL4A / RFU, CCNY / Fold change vs veh, CCNY / RFU, UFL1 / Fold change vs veh, UFL1 / RFU, COG3 / Fold change vs veh, COG3 / RFU, DIAPH2 / Fold change vs veh, DIAPH2 / RFU, SKA2 / Fold change vs veh, SKA2 / RFU, AFF3 / Fold change vs veh, AFF3 / RFU, LMF1 / Fold change vs veh, LMF1 / RFU, IPO11 / Fold change vs veh, IPO11 / RFU, DFFB / Fold change vs veh, DFFB / RFU, FOXP1 / Fold change vs veh, FOXP1 / RFU, CARD8 / Fold change vs veh, CARD8 / RFU, STRN3 / Fold change vs veh, STRN3 / RFU, ADK / Fold change vs veh, ADK / RFU, RASSF2 / Fold change vs veh, RASSF2 / RFU, WIPF1 / Fold change vs veh, WIPF1 / RFU, LARP1B / Fold change vs veh, LARP1B / RFU, RASA1 / Fold change vs veh, RASA1 / RFU, RB1 / Fold change vs veh, RB1 / RFU, PPFIA1 / Fold change vs veh, PPFIA1 / RFU, MAT2A / Fold change vs veh, MAT2A / RFU, CCT5 / Fold change vs veh, CCT5 / RFU, WDR92 / Fold change vs veh, WDR92 / RFU, CUX1 / Fold change vs veh, CUX1 / RFU, TTC7A / Fold change vs veh, TTC7A / RFU, TMEM135 / Fold change vs veh, TMEM135 / RFU, DEPTOR / Fold change vs veh, DEPTOR / RFU, CPM / Fold change vs veh, CPM / RFU, DNAJB6 / Fold change vs veh, DNAJB6 / RFU, CACNA2D3 / Fold change vs veh, CACNA2D3 / RFU, DTX4 / Fold change vs veh, DTX4 / RFU, TFCP2 / Fold change vs veh, TFCP2 / RFU, GMCL1 /// GMCL1P1 / Fold change vs veh, GMCL1 /// GMCL1P1 / RFU, AEBP2 / Fold change vs veh, AEBP2 / RFU, SNHG1 /// SNORD22 /// SNORD25 /// SNORD26 /// SNORD27 /// SNORD28 /// SNORD29 /// SNORD31 / Fold change vs veh, SNHG1 /// SNORD22 /// SNORD25 /// SNORD26 /// SNORD27 /// SNORD28 /// SNORD29 /// SNORD31 / Fold change (Aza/veh), C12orf56 (ProbeSet 11735607_a_at) / Fold change (ACY-1035/veh), C12orf56 (ProbeSet 11735607_a_at) / Fold change (Aza/veh), FGFR1OP (ProbeSet 11751329_s_at) / Fold change (ACY-1035/veh), FGFR1OP (ProbeSet 11751329_s_at) / Fold change (Aza/veh), VPS36 (ProbeSet 11739960_a_at) / Fold change (ACY-1035/veh), VPS36 (ProbeSet 11739960_a_at) / RFU SYPL1 (11715823_x_at) / Fold change /veh SYPL1 (11715823_x_at) / RFU IGFBP7 (11715501_s_at) / Fold change /veh IGFBP7 (11715501_s_at) / RFU REEP3 (11722064_at) / Fold change /veh REEP3 (11722064_at) / RFU IGLL1 (11728026_x_at) / Fold change /veh IGLL1 (11728026_x_at): dose or concentration left out as unconfirmed
Conditions: ProbeSet 11716844_s_at; LIST D

SMILES: Nc1ncn([C@@H]2O[C@H](CO)[C@@H](O)[C@H]2O)c(=O)n1 [azacitidine]
- Fold change vs veh, DNAJC13: 0.78
